Results taken from patent US20170166555A1, “FUNCTIONALISED AND SUBSTITUTED INDOLES AS ANTI-CANCER AGENTS” (Novogen Limited, priority 2013, published 2017).
Like-named read-outs stand apart in the source and are kept apart here.

How the values were obtained:
Assay in all cases: Anti-proliferative assay, cell-titre luminescent reagent, 72 h (GVK-BIO)
Type in all cases: cell-based
[1] = tested on: MDA-MB-231 triple negative breast cancer cells; conditions: Homo sapiens
Protocol: (§1) The ability of compounds 4001, 4002, 4008, 4010, 4011, 4013-4015, 4018, 4026, 4045-4113 and 4115-4127 to inhibit the proliferation of cancer cells representative of neuroblastoma, melanoma, prostate cancer, colorectal cancer, non-small cell lung carcinoma, and triple negative breast cancer was assessed. These studies were conducted by contract research (GVK-BIO). Briefly, a pre-determined number of cells as calculated from cell growth assays for each of the cell lines employed were seeded into their respective culture medium (using ATCC culture parameters—http://www.atcc.org) and cultured for 24 h at 37° C. and 5% CO2 in 96-well culture plates. Once attached, each cell line was then exposed to various concentrations of each respective analogue (30, 3, 0.3 and 0.03 μM for compounds in Tables 2, 3 and 4; 30, 10, 3, 1, 0.3 and 0.1 μM for compounds in Table 5), cultured for a further 72 h and exposed to cell-titre luminescent reagent (100 μL/well) for a further 30 min). Luminescence was captured using an EnVision multilabel reader and the data for each analogue concentration compared against no treatment control. For compounds in Tables 2-4, semi-log plots of Percent of Control versus concentration were prepared and IC50 determined using linear regression analysis. For compounds in Table 5, cell viability was normalized to control (vehicle alone) and dose-response curves, and half maximal effective concentration (EC50) values were determined using Graph Pad Prism 6 (nonlinear regression sigmoidal dose-response variable slope).

SK-Mel-28 melanoma cells = conditions: Homo sapiens
Protocol: as §1

[2] = tested on: DU145 prostate cancer cells; conditions: Homo sapiens
Protocol: as §1

[3] = tested on: SK-N-SH neuroblastoma cells; conditions: Homo sapiens
Protocol: as §1

[4] = tested on: A549 non-small cell lung carcinoma cells; conditions: Homo sapiens, read-out: IC50/μM Lung (NSLC) A549
Protocol: as §1

[5] = tested on: CaCo2 colorectal cancer cells
Protocol: as §1

[6] = tested on: PC3 prostate cancer cells
Protocol: as §1

[7] = MDA-MB-231, 72 h, 30, 3, 0.3 and 0.03 μM, linear regression (Tables 2-4)
[8] = SK-MEL-28, 72 h, 30, 3, 0.3 and 0.03 μM, linear regression (Tables 2-4)
[9] = DU-145, 72 h, 30, 3, 0.3 and 0.03 μM, linear regression (Tables 2-4)
[10] = SK-N-SH, 30, 3, 0.3 and 0.03 μM, linear regression (Tables 2-4)
[11] = A549, 72 h, 30, 3, 0.3 and 0.03 μM, linear regression (Tables 2-4)
[12] = Homo sapiens, Caco-2, 72 h, 30, 3, 0.3 and 0.03 μM, linear regression (Tables 2-4)
[13] = 30, 3, 0.3 and 0.03 μM, linear regression (Tables 2-4)
[14] = MDA-MB-231, 72 h, 30, 10, 3, 1, 0.3 and 0.1 μM, nonlinear regression (Table 5)
[15] = SK-MEL-28, 72 h, 30, 10, 3, 1, 0.3 and 0.1 μM, nonlinear regression (Table 5)
[16] = DU-145, 72 h, 30, 10, 3, 1, 0.3 and 0.1 μM, nonlinear regression (Table 5)
[17] = SK-N-SH, 30, 10, 3, 1, 0.3 and 0.1 μM, nonlinear regression (Table 5)
[18] = A549, 72 h, 30, 10, 3, 1, 0.3 and 0.1 μM, nonlinear regression (Table 5)
[19] = Homo sapiens, Caco-2, 72 h, 30, 10, 3, 1, 0.3 and 0.1 μM, nonlinear regression (Table 5)
[20] = 30, 10, 3, 1, 0.3 and 0.1 μM, nonlinear regression (Table 5)

SMILES	IC50 [1, 7] [µM]	IC50 (SK-Mel-28 melanoma cells; [8]) [µM]	IC50 [2, 9] [µM]	IC50 [3, 10] [µM]	IC50 [4, 11] [µM]	IC50 [5, 12] [µM]	IC50 [6, 13] [µM]	IC50 [1, 14] [µM]	IC50 (SK-Mel-28 melanoma cells; [15]) [µM]	IC50 [2, 16] [µM]	IC50 [3, 17] [µM]	IC50 [4, 18] [µM]	IC50 [5, 19] [µM]	IC50 [6, 20] [µM]	IC50 [5, 13] [µM]
Cc1c(C)n(CCCN(C)C)c2ccc(Oc3cccc(C(=O)Nc4ccc5c(c4)OCO5)c3)cc12 [Compound 4063, N-(benzo[d][1,3]dioxol-5-yl)-3-((1-(37(dimethylamino)propyl)-2,3-dimethyl-1H-indol-5-yl)oxy)benzamide]	3.7	3.8	3.6	4.2	3	9.6	4.9								
Cc1c(C)n(CCCN(C)C)c2ccc(Oc3cccc(C(=O)Nc4ccccc4)c3)cc12 [Compound 4066, 3-((1-(3-(dimethylamino)propyl)-2,3-dimethyl-1H-indol-5-yl)oxy)-N-phenylbenzamide]								11.4	4.9	6.9	5.4	8.5	14.8	10	
COc1ccc(NC(=O)c2cccc(Nc3ccc4c(ccn4CCCN(C)C)c3)c2)cc1 [Compound 4068, 3-((1-(3-(dimethylamino)propyl)-1H-indol-5-yl)amino)-N-(4-methoxyphenyl)benzamide]	2.8	2.7	5.4	3.5	2.9	> 30	14.6								
CN(C)CCCn1ccc2cc(Nc3cccc(C(=O)Nc4cccc(F)c4)c3)ccc21 [Compound 4070, 3-((1-(3-(dimethylamino)propyl)-1H-indol-5-yl)amino)-N-(3-fluorophenyl)benzamide]	1.7	2.5	3.1	2.2	2.3	1.7	2.9								
COc1ccc(NC(=O)c2cccc(Nc3ccc4c(c3)c(C)c(C)n4CCCN(C)C)c2)cc1 [Compound 4073, 3-((1-(3-(dimethylamino)propyl)-2,3-dimethyl-1H-indol-5-yl)amino)-N-(4-methoxyphenyl)benzamide]	3.4	3.1	4	2.6	3.9	2.8	4.2								
Cc1c(C)n(CCCN(C)C)c2ccc(Nc3cccc(C(=O)Nc4ccc5c(c4)OCO5)c3)cc12 [Compound 4074, N-(benzo[d][1,3]dioxol-5-yl)-3-((1-(3-(dimethylamino)propyl)-2,3-dimethyl-1H-indol-5-yl)amino)benzamide]	1.5	2.7	2.8	1.3	2.5	2.4	22.7								
Cc1c(C)n(CCCN(C)C)c2ccc(Nc3cccc(C(=O)Nc4cccc(F)c4)c3)cc12 [Compound 4075, 3-((1-(3-(dimethylamino)propyl)-2,3-dimethyl-1H-indol-5-yl)amino)-N-(3-fluorophenyl)benzamide]	2.6	2.7	3	2.6	2.9	3.3	4.5								
COc1cccc(NC(=O)c2cccc(Nc3ccc4c(c3)c(C)c(C)n4CCCN(C)C)c2)c1 [Compound 4076, 3-((1-(3-(dimethylamino)propyl)-2,3-dimethyl-1H-indol-5-yl)amino)-N-(3-methoxyphenyl)benzamide]	1.7	2.1	3.2	2.8	1.8	2.9	3.7								
CN(C)CCCn1ccc2cc(Cc3ccc(C(=O)Nc4ccc(F)cc4)cc3)ccc21 [Compound 4077, 4-((1-(3-(dimethylamino)propyl)-1H-indol-5-yl)methyl)-N-(4-fluorophenyl)benzamide]	3.4	2.7	3.2	3.1	3.3	3.3	2.8								
CN(C)CCCn1ccc2cc(Cc3ccc(C(=O)Nc4cccc(F)c4)cc3)ccc21 [Compound 4080, 4-((1-(3-(dimethylamino)propyl)-1H-indol-5-yl)methyl)-N-(3-fluorophenyl)benzamide]	3.2	3.1	3.5	2.8	3.1	3	3								
COc1cccc(NC(=O)c2ccc(Cc3ccc4c(ccn4CCCN(C)C)c3)cc2)c1 [Compound 4081, 4-((1-(3-(dimethylamino)propyl)-1H-indol-5-yl)methyl)-N-(3-methoxyphenyl)benzamide]	2.5	2.3	2.9	1.6	2.9	3.1	2.1								

The remaining lines, values ahead:

IC50 [1, 7] [µM]	IC50 (SK-Mel-28 melanoma cells; [8]) [µM]	IC50 [2, 9] [µM]	IC50 [3, 10] [µM]	IC50 [4, 11] [µM]	IC50 [5, 12] [µM]	IC50 [6, 13] [µM]	IC50 [1, 14] [µM]	IC50 (SK-Mel-28 melanoma cells; [15]) [µM]	IC50 [2, 16] [µM]	IC50 [3, 17] [µM]	IC50 [4, 18] [µM]	IC50 [5, 19] [µM]	IC50 [6, 20] [µM]	IC50 [5, 13] [µM]	SMILES
3.3	2.7	3.4	2.4	3.5	3.8	2.6									Cc1c(C)n(CCCN(C)C)c2ccc(Oc3cccc(C(=O)Nc4cccc(F)c4)c3)cc12 [Compound 4064]
							5	5	4.2	5.2	4.6	6.5	6.5		COc1cccc(NC(=O)c2cccc(Oc3ccc4c(c3)c(C)c(C)n4CCCN(C)C)c2)c1 [Compound 4065, 3-((1-(3-(dimethylamino)propyl)-2,3-dimethyl-1H-indol-5-yl)oxy)-N-(3-methoxyphenyl)benzamide]
3.8	2.5	4.3	3.3	4		4.3								4.3	CN(C)CCCn1ccc2cc(Nc3cccc(C(=O)Nc4ccc(F)cc4)c3)ccc21 [Compound 4067, 3-((1-(3-(dimethylamino)propyl)-1H-indol-5-yl)amino)-N-(4-fluorophenyl)benzamide]
4.2	2.5	4.4	3.4	4.2	> 30	9.9									CN(C)CCCn1ccc2cc(Nc3cccc(C(=O)Nc4ccc5c(c4)OCO5)c3)ccc21 [Compound 4069, N-(benzo[d][1,3]dioxol-5-yl)-3-((1-(3-(dimethylamino)propyl)-1H-indol-5-yl)amino)benzamide]
3.4	4.9	4.7	3.7	4	12	7.6									COc1cccc(NC(=O)c2cccc(Nc3ccc4c(ccn4CCCN(C)C)c3)c2)c1 [Compound 4071]
1.7	3	2.9	1.7	1.9	2	3.8									Cc1c(C)n(CCCN(C)C)c2ccc(Nc3cccc(C(=O)Nc4ccc(F)cc4)c3)cc12 [Compound 4072, 3-((1-(3-(dimethylamino)propyl)-2,3-dimethyl-1H-indol-5-yl)amino)-N-(4-fluorophenyl)benzamide]
1.6	1.9	1.4	6.5	1.4	3.6	1.2									COc1ccc(NC(=O)c2ccc(Cc3ccc4c(ccn4CCCN(C)C)c3)cc2)cc1 [Compound 4078, 4-((1-(3-(dimethylamino)propyl)-1H-indol-5-yl)methyl)-N-(4-methoxyphenyl)benzamide]
4.3	2.8	3.1	2.9	3.1	> 30	1.8									CN(C)CCCn1ccc2cc(Cc3ccc(C(=O)Nc4ccc5c(c4)OCO5)cc3)ccc21 [Compound 4079, N-(benzo[d][1, 3]dioxol-5-yl)-4-((1-(3-(dimethylamino)propyl)-1H-indol-5-yl)methyl)benzamide]
